A compilation of properties of binary mixtures (doi:10.1016/j.molliq.2019.03.144)

Test: xn = mol fraction of the nth substance listed
Conditions: 96.7 kPa

For `CC(=O)[O-].CC[n+]1ccn(C)c1` + c1ccncc1, the viscosity (303.15 K, x1 = 0.166) was 2.54 mPa·s, the viscosity (303.15 K, x1 = 0.318) was 5.96 mPa·s and the viscosity (303.15 K, x1 = 0.52) was 15.7 mPa·s. It also gave a viscosity (303.15 K, x1 = 0.649) of 27.5 mPa·s, a viscosity (303.15 K, x1 = 0.806) of 51 mPa·s and a viscosity (303.15 K, x1 = 0.898) of 72.6 mPa·s. For the same compound, the viscosity (303.15 K, x1 = 1) was 103.2 mPa·s, the viscosity (308.15 K, x1 = 0.318) was 5.29 mPa·s and the viscosity (308.15 K, x1 = 0.411) was 8.29 mPa·s. It also gave a viscosity (308.15 K, x1 = 0.649) of 22.7 mPa·s, a viscosity (308.15 K, x1 = 1) of 76.1 mPa·s and a viscosity (313.15 K, x1 = 0.166) of 2.12 mPa·s. The viscosity (313.15 K, x1 = 0.318) was 4.72 mPa·s, the viscosity (313.15 K, x1 = 0.411) was 7.27 mPa·s and the viscosity (313.15 K, x1 = 0.52) was 11.55 mPa·s. The viscosity (313.15 K, x1 = 0.649) was 19 mPa·s, the viscosity (313.15 K, x1 = 0.806) was 33.1 mPa·s and the viscosity (313.15 K, x1 = 0.898) was 44.7 mPa·s. It also gave a viscosity (313.15 K, x1 = 1) of 59.6 mPa·s, a viscosity (318.15 K, x1 = 0.166) of 1.95 mPa·s and a viscosity (318.15 K, x1 = 0.318) of 4.22 mPa·s. It also gave a viscosity (318.15 K, x1 = 0.411) of 6.42 mPa·s, a viscosity (318.15 K, x1 = 0.52) of 9.99 mPa·s and a viscosity (318.15 K, x1 = 0.649) of 16.09 mPa·s. The viscosity (318.15 K, x1 = 0.806) was 27 mPa·s, the viscosity (318.15 K, x1 = 0.898) was 36 mPa·s and the viscosity (318.15 K, x1 = 1) was 47.4 mPa·s. The viscosity (323.15 K, x1 = 0.166) was 1.797 mPa·s, the viscosity (323.15 K, x1 = 0.318) was 3.82 mPa·s and the viscosity (323.15 K, x1 = 0.411) was 5.71 mPa·s. It also gave a viscosity (323.15 K, x1 = 0.649) of 13.77 mPa·s, a viscosity (323.15 K, x1 = 0.806) of 22.7 mPa·s and a viscosity (323.15 K, x1 = 1) of 38.4 mPa·s. For the same compound, the viscosity (328.15 K, x1 = 0.166) was 1.671 mPa·s, the viscosity (328.15 K, x1 = 0.411) was 5.11 mPa·s and the viscosity (328.15 K, x1 = 0.52) was 7.68 mPa·s. The viscosity (328.15 K, x1 = 0.649) was 11.88 mPa·s, the viscosity (328.15 K, x1 = 0.898) was 24.5 mPa·s and the viscosity (328.15 K, x1 = 1) was 31.5 mPa·s. For the same compound, the viscosity (333.15 K, x1 = 0.166) was 1.552 mPa·s, the viscosity (333.15 K, x1 = 0.411) was 4.6 mPa·s and the viscosity (333.15 K, x1 = 0.52) was 6.82 mPa·s. It also gave a viscosity (333.15 K, x1 = 0.806) of 16.33 mPa·s, a viscosity (333.15 K, x1 = 0.898) of 20.6 mPa·s and a viscosity (338.15 K, x1 = 0.166) of 1.453 mPa·s. It also gave a viscosity (338.15 K, x1 = 0.411) of 4.16 mPa·s, a viscosity (338.15 K, x1 = 0.52) of 6.09 mPa·s and a viscosity (338.15 K, x1 = 0.649) of 9.11 mPa·s. The viscosity (338.15 K, x1 = 0.806) was 14.04 mPa·s, the viscosity (338.15 K, x1 = 0.898) was 17.63 mPa·s and the viscosity (338.15 K, x1 = 1) was 22 mPa·s. It also gave a viscosity (343.15 K, x1 = 0.318) of 2.65 mPa·s, a viscosity (343.15 K, x1 = 0.52) of 5.47 mPa·s and a viscosity (343.15 K, x1 = 0.806) of 12.35 mPa·s. For the same compound, the viscosity (343.15 K, x1 = 0.898) was 15.11 mPa·s, the viscosity (348.15 K, x1 = 0.166) was 1.278 mPa·s and the viscosity (348.15 K, x1 = 0.318) was 2.45 mPa·s. For the same compound, the viscosity (348.15 K, x1 = 0.411) was 3.46 mPa·s, the viscosity (348.15 K, x1 = 0.52) was 4.96 mPa·s and the viscosity (348.15 K, x1 = 0.649) was 7.18 mPa·s. It also gave a viscosity (348.15 K, x1 = 0.806) of 10.77 mPa·s, a viscosity (348.15 K, x1 = 0.898) of 13.26 mPa·s and a viscosity (348.15 K, x1 = 1) of 16.25 mPa·s. It also gave a viscosity (353.15 K, x1 = 0.166) of 1.203 mPa·s, a viscosity (353.15 K, x1 = 0.411) of 3.18 mPa·s and a viscosity (353.15 K, x1 = 0.52) of 4.48 mPa·s. For the same compound, the viscosity (353.15 K, x1 = 0.649) was 6.45 mPa·s, the viscosity (353.15 K, x1 = 0.806) was 9.52 mPa·s and the viscosity (353.15 K, x1 = 0.898) was 11.59 mPa·s. It also gave a viscosity (353.15 K, x1 = 1) of 14.03 mPa·s.

`c1ccncc1` + CC(=O)[O-].CC[n+]1ccn(C)c1 gave a viscosity (303.15 K, x2 = 0) of 0.843 mPa·s, a viscosity (313.15 K, x2 = 0) of 0.741 mPa·s and a viscosity (323.15 K, x2 = 0) of 0.658 mPa·s. It also gave a viscosity (333.15 K, x2 = 0) of 0.59 mPa·s, a viscosity (343.15 K, x2 = 0) of 0.533 mPa·s and a viscosity (353.15 K, x2 = 0) of 0.485 mPa·s.
